# Earlier results in patent publication US20240207270A1, “COMPOUNDS AND COMPOSITIONS FOR MODULATING LIPID METABOLISM” (WaveBreak Inc., priority 2021, published 2024).
# Molecular target: ROCK
# Conditions: ATP-competitive inhibitor of ROCK
structure (smiles),measurement,value
Cc1cncc2cccc(S(=O)(=O)N3CCCNC[C@@H]3C)c12 [(S)-H-1152],Ki,1.6 nM
